Measured values taken from publication PMC2760403 (The Journal of organic chemistry, 2009).

What was measured:
[1] = biological target: M. tuberculosis Lumazine Synthase (Mycobacterium tuberculosis, UniProt P9WHE9); type: biochemical; details: recombinant M. tuberculosis LS; for kcat (rate constant ES → E + P): fit of the compound's data set; for kcat (rate constant ES → E + P) / Kis (inhibitor dissociation constant, ES + I ⇌ ESI): pH 7.0; for Kis (inhibitor dissociation constant, ES + I ⇌ ESI): substrate 1 varied, 2 constant
Chain of M. tuberculosis Lumazine Synthase (P9WHE9 whole entry): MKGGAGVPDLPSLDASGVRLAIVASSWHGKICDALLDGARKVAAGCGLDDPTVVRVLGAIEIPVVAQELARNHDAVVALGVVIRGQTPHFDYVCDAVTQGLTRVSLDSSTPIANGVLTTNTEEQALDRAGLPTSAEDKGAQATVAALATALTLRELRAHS

[2] = biological target: T1, S. pombe Lumazine Synthase (Schizosaccharomyces pombe, UniProt Q9UUB1); test: Lumazine synthase kinetic inhibition assay; type: biochemical; details: recombinant S. pombe LS; for kcat (rate constant ES → E + P): fit of the compound's data set; for kcat (rate constant ES → E + P) / Kis (inhibitor dissociation constant, ES + I ⇌ ESI): pH 7.0; for Kis (inhibitor dissociation constant, ES + I ⇌ ESI): substrate 1 varied, 2 constant
T1 sequence (Q9UUB1 1-159): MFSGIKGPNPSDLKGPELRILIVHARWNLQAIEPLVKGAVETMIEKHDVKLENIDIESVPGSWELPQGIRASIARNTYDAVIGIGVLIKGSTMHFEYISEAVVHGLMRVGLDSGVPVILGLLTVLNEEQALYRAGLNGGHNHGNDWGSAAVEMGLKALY

SMILES	Mode of inhibition [1]	kcat (rate constant ES → E + P) [1]	Kis (inhibitor dissociation constant, ES + I ⇌ ESI) [1]	Mode of inhibition [2]	kcat (rate constant ES → E + P) [2]	Kis (inhibitor dissociation constant, ES + I ⇌ ESI) [2]
O=c1[nH]c(/C=C/c2ccccc2[N+](=O)[O-])c([N+](=O)[O-])c(=O)[nH]1 [Compound 14, (E)-6-(2-Nitrostyryl)-5-nitropyrimidine-2,4(1H,3H)-dione]	Partial	0.00517 ± 0.00017 s⁻¹	49 ± 12 µM			
COc1ccccc1/C=C/c1[nH]c(=O)[nH]c(=O)c1[N+](=O)[O-] [Compound 19, (E)-6-(2-Methoxystyryl)-5-nitropyrimidine-2,4(1H,3H)-dione]	Partial	0.00537 ± 6.7e-05 s⁻¹	44 ± 10 µM	Mixed	0.0285 ± 0.00017 s⁻¹	733 ± 227 µM
COc1ccc(/C=C/c2[nH]c(=O)[nH]c(=O)c2[N+](=O)[O-])cc1O [Compound 20, (E)-6-(3-Hydroxy-4-methoxystyryl)-5-nitropyrimidine-2,4(1H,3H)-dione]	Mixed	0.00467 ± 0.00017 s⁻¹	74 ± 12 µM	Uncompetitive	0.0235 ± 0.00033 s⁻¹	38 ± 2 µM
COc1cccc(/C=C/c2[nH]c(=O)[nH]c(=O)c2[N+](=O)[O-])c1OC [Compound 21, (E)-6-(2,3-Dimethoxystyryl)-5-nitropyrimidine-2,4(1H,3H)-dione]	Mixed	0.0055 ± 0.00017 s⁻¹	22 ± 6 µM	Competitive	0.0368 ± 0.00033 s⁻¹	
COc1ccc(/C=C/c2[nH]c(=O)[nH]c(=O)c2[N+](=O)[O-])cc1OC [Compound 22, (E)-6-(3,4-Dimethoxystyryl)-5-nitropyrimidine-2,4(1H,3H)-dione]	Mixed	0.0055 ± 0.00017 s⁻¹	32 ± 3 µM			
COc1ccc(/C=C/c2[nH]c(=O)[nH]c(=O)c2[N+](=O)[O-])c(OC)c1OC [Compound 23, (E)-6-(2,3,4-Trimethoxystyryl)-5-nitropyrimidine-2,4(1H,3H)-dione]	Mixed	0.00567 ± 0.00017 s⁻¹	97 ± 24 µM			
COc1cc(/C=C/c2[nH]c(=O)[nH]c(=O)c2[N+](=O)[O-])cc(OC)c1OC [Compound 24, (E)-6-(3,4,5-Trimethoxystyryl)-5-nitropyrimidine-2,4(1H,3H)-dione]	Mixed	0.0045 ± 0.00017 s⁻¹	37 ± 5 µM	Uncompetitive	0.0233 ± 0.0005 s⁻¹	47 ± 4 µM
O=c1[nH]c(/C=C/c2cccc([N+](=O)[O-])c2)c([N+](=O)[O-])c(=O)[nH]1 [Compound 25, (E)-5-Nitro-6-(3-nitrostyryl)pyrimidine-2,4(1H,3H)-dione]	Mixed	0.0055 ± 0.00017 s⁻¹	173 ± 50 µM	Mixed	0.019 ± 0.00033 s⁻¹	496 ± 219 µM
O=c1[nH]c(/C=C/c2ccc([N+](=O)[O-])cc2)c([N+](=O)[O-])c(=O)[nH]1 [Compound 26, (E)-5-Nitro-6-(4-nitrostyryl)pyrimidine-2,4(1H,3H)-dione]	Mixed	0.0075 ± 0.00017 s⁻¹	37 ± 17 µM	Partial	0.0217 ± 0.00033 s⁻¹	15 ± 5 µM
O=C(O)c1ccc(/C=C/c2[nH]c(=O)[nH]c(=O)c2[N+](=O)[O-])cc1 [Compound 27, (E)-4-(2-(5-Nitro-2,6-dioxo-1,2,3,6-tetrahydropyrimidine-4-yl)vinyl)benzoic Acid]	Partial	0.00588 ± 6.7e-05 s⁻¹	78 ± 38 µM	Mixed	0.0232 ± 0.0005 s⁻¹	187 ± 43 µM
O=c1[nH]c(/C=C/c2ccccc2F)c([N+](=O)[O-])c(=O)[nH]1 [Compound 28, (E)-6-(2-Fluorostyryl)-5-nitropyrimidine-2,4(1H,3H)-dione]	Mixed	0.0045 ± 0.00017 s⁻¹	13 ± 3 µM			
O=c1[nH]c(/C=C/c2ccc(Br)cc2)c([N+](=O)[O-])c(=O)[nH]1 [Compound 30, (E)-5-Nitro-6-(4-bromostyryl)pyrimidine-2,4(1H,3H)-dione]	Mixed	0.00567 ± 0.00017 s⁻¹	234 ± 59 µM	Uncompetitive	0.0205 ± 0.00017 s⁻¹	604 ± 54 µM
O=c1[nH]c(/C=C/c2ccc(Cl)cc2)c([N+](=O)[O-])c(=O)[nH]1 [Compound 31, (E)-6-(4-Chlorostyryl)-5-nitropyrimidine-2,4(1H,3H)-dione]	Mixed	0.00617 ± 0.00017 s⁻¹	188 ± 38 µM			
COc1ccc([N+](=O)[O-])cc1/C=C/c1[nH]c(=O)[nH]c(=O)c1[N+](=O)[O-] [Compound 34, (E)-6-(2-Methoxy-5-nitrostyryl)-5-nitropyrimidine-2,4(1H,3H)-dione]	Mixed	0.00633 ± 0.00017 s⁻¹	225 ± 59 µM	Mixed	0.0182 ± 0.00033 s⁻¹	682 ± 409 µM
O=c1[nH]c(/C=C/c2cccnc2)c([N+](=O)[O-])c(=O)[nH]1 [Compound 42, (E)-5-Nitro-6-(3-(pyridine-3-yl)vinyl)pyrimidine-2,4(1H,3H)-dione]	Partial	0.007 ± 0.00017 s⁻¹	24 ± 10 µM			
O=c1[nH]c(NCc2ccccc2)c([N+](=O)[O-])c(=O)[nH]1 [Compound 45, 6-(Benzylamino)-5-nitropyrimidine-2,4(1H,3H)-dione]	Uncompetitive	0.00933 ± 0.00017 s⁻¹	823 ± 128 µM			
O=c1[nH]c(NCc2ccccc2O)c([N+](=O)[O-])c(=O)[nH]1 [Compound 46, 6-(2-Hydroxybenzylamino)-5-nitropyrimidine-2,4(1H,3H)-dione]	Uncompetitive	0.0103 ± 0.00033 s⁻¹	904 ± 193 µM			
O=C1OC(Cc2[nH]c(=O)[nH]c(=O)c2[N+](=O)[O-])c2ccccc21 (centres unmarked) [Compound 49, 5-Nitro-6-[(3-oxo-1,3-dihydroisobenzofuran-1-yl)methyl]pyrimidine-2,4-(1H,3H)-dione]				Uncompetitive	0.0187 ± 0.00033 s⁻¹	154 ± 13 µM
